How the values were obtained:
[1] = Cytotoxicity against human CFU-GM cells; type: cell-based
[2] = Cytotoxicity against human erythroid progenitor cells; type: cell-based
Trichomonas vaginalis [3] = assay: Antiparasitic activity against Trichomonas vaginalis T1 after 24 hrs by hemocytometric analysis; type: functional, organism-based; conditions: T1, 24 h
Trichomonas vaginalis [4] = assay: Antiparasitic activity against Trichomonas vaginalis T1 at 100 uM after 24 hrs by hemocytometric analysis; type: functional; conditions: T1, 24 h
Trichomonas vaginalis [5] = assay: Antiparasitic activity against Trichomonas vaginalis G3 at 100 uM after 24 hrs by hemocytometric analysis; type: functional; conditions: G3, 24 h
Trichomonas vaginalis [6] = assay: Antiparasitic activity against Trichomonas vaginalis G3 after 24 hrs by hemocytometric analysis; type: functional; conditions: G3, 24 h

| IC50 (Trichomonas vaginalis [3]) | IC50 (Trichomonas vaginalis [6]) | Structure (SMILES) | IC50 [1] | IC50 [2] | inhibition at 100 µM (Trichomonas vaginalis [4]) | inhibition at 100 µM (Trichomonas vaginalis [5]) |
| --- | --- | --- | --- | --- | --- | --- |
| – | – | O=C(Nc1ccc(Cl)c(Cl)c1)c1cccc([N+](=O)[O-])c1 | – | – | 22% | 51% |
| – | – | O=C(Nc1ccc(Cl)c(Cl)c1)c1ccc(Cl)c(Cl)c1 | – | – | 29% | 55% |
| – | – | O=C(Nc1ccc(Cl)c(Cl)c1)c1ccc(Cl)cc1Cl | – | – | 38% | 46% |
| – | – | COc1ccc(C(=O)Nc2ccc(Cl)c(Cl)c2)cc1 | – | – | 22% | 13% |
| – | – | O=C(Nc1ccc(Cl)c(Cl)c1)c1cccc(Cl)c1 | – | – | 19% | 70% |
| – | – | O=C(Nc1ccc(O)cc1)C1CCCCC1 | – | – | 25% | 39% |
| – | – | O=C(Nc1ccc(Cl)c(Cl)c1)C12CC3CC(CC(C3)C1)C2 | – | – | 0% | 19% |
| 0.72 µM | 0.77 µM | Cc1ncc([N+](=O)[O-])n1CCO [METRONIDAZOLE] | – | – | – | – |
| – | – | COc1ccc(NC(=O)C2CCCCC2)cc1OC | – | – | 34% | 10% |
| – | – | COc1ccc(-c2ccccc2)cc1NC(=O)C1CCCCC1 | – | – | 36% | 28% |
| – | – | O=C(Nc1ccc(Cl)c(Cl)c1)c1cccc2ccccc12 | – | – | 49% | 37% |
| – | – | O=C(Nc1ccc(Cl)c(Cl)c1)c1ccc(-c2ccccc2)cc1 | – | – | 64% | 24% |
| – | – | O=Cc1ccc(-c2ccc(Cl)cc2[N+](=O)[O-])o1 | – | – | 59% | 46% |
| – | – | O=C1C=CC(=O)c2c(O)cccc21 [JUGLONE] | – | – | 39% | 49% |
| – | – | CC(=O)Nc1ccc(O)cc1 [ACETAMINOPHEN] | – | – | 17% | 14% |
| 77 µM | 90 µM | O=C(Nc1ccc(Cl)c(Cl)c1)c1cccc(C(F)(F)F)c1 | – | – | 69% | 66% |
| – | – | O=C(Nc1ccc(Cl)c(Cl)c1)c1cccc(F)c1 | – | – | 29% | 61% |
| – | – | O=C(Nc1ccc(Cl)c(Cl)c1)c1ccc([N+](=O)[O-])cc1 | – | – | 44% | 40% |
| – | – | O=C1C(Cl)=C(Cl)C(=O)C(Cl)=C1Cl [CHLORANIL] | – | – | 12% | 40% |
| – | – | O=C(Nc1ccc(Cl)c(Cl)c1)c1ccc(Cl)cc1 | – | – | 46% | 28% |
| – | – | O=C(Nc1ccc(Cl)c(Cl)c1)C1CCCCC1 | – | – | 62% | 30% |

| Structure (SMILES) | IC50 (Trichomonas vaginalis [3]) | IC50 (Trichomonas vaginalis [6]) | IC50 [1] | IC50 [2] | inhibition at 100 µM (Trichomonas vaginalis [4]) | inhibition at 100 µM (Trichomonas vaginalis [5]) |
| --- | --- | --- | --- | --- | --- | --- |
| CCC(=O)Nc1ccc(Cl)c(Cl)c1 [PROPANIL] | 120 µM | – | > 500 µM | 305 µM | 29% | 20% |

From ChEMBL document CHEMBL1221263, “Preliminary studies of 3,4-dichloroaniline amides as antiparasitic agents: structure-activity analysis of a compound library in vitro against Trichomonas vaginalis” (Bioorg Med Chem Lett, 2010)
